Results reported in patent US20230173135A1, “PROCESS TO COAT A MEDICAL DEVICE SURFACE WITH PEPTIDE-BASED NANOPARTICLES” (priority 2020, published 2023).

Assays:
E.coli = type: cell-based
Procedure: (§1) Bacterial resistance assay. Commercial available Acticoat® dressing from Smith & Nephew was used to study the development of bacterial resistance against Ag. Acticoat® (1 cm^2 area) was placed in water (1 mL) and kept at room temperature for 24 h in order to promote leaching of Ag ions. ICP-MS analysis of leached solution was done to quantify the amount of Ag ions. The leached Acticoat® solution (Ag^+,0.06 ug/mL; sub-minimum inhibitory concentration, sub-MIC) was used to incubate with E.coli or S.aureus suspensions (10^5 CFU/mL) for 20 h in 10% human serum (HS; v/v in PBS). Then, for antimicrobial test, 10^5 CFU/mL of bacteria from passage 1 were incubated with 0.1 ug/mL (minimum inhibitory concentration, MIC) of Acticoat® solution in 10% human serum (HS) for 6 h followed by serial dilution and plating. Plates were incubated at 37° C. for 24 h. The visible bacteria grown on plates were counted. […]
(§2) Next, the inventors evaluated whether LL37NPs induced bacterial resistance (FIG. 5). […] Acticoat® dressing was incubated in PBS for 1, 3 and 5 days followed by the quantification of silver ions using ICP-MS analysis (FIG. 11C). […]
(§3) (A) Schematic diagram showing experimental procedures being used for bacterial resistance assay. […] ICP-MS analysis was performed to quantify the amount of Ag. […]

S.aureus = type: cell-based
Procedure: as §1, §2, §3

[1] = system: Human keratinocyte cell line (HaCaT); assay: Biocompatibility: keratinocytes cultured on films, ATP (CellTiter-Glo) assay; type: cell-based; details: 4 and 24 h; cells on films or with soluble peptide (20 µg/mL)
Procedure: Cell Culture. Human dermal fibroblast cells (NDHF) (Lonza) were cultured with Dulbecco’s modified eagle’s medium (DMEM) (Sigma) supplemented with 10% (v/v) of fetal bovine serum (Gibco, Grand Island, NY, USA) and 1% (v/v) penicillin/streptomycin (Lonza). NDHF cells under passage number ten were used in all experiments. Human keratinocyte cell line (HaCaT cell line, CLS, Eppelheim, Germany) was cultured as recommended by the vendor. Briefly, HaCaT cells were cultivated using DMEM supplemented with 1% (v/v) penicillin and streptomycin (Invitrogen) and 10% (v/v) fetal bovine serum (FBS, Invitrogen) until 90% of confluence. For passage, HaCat cells were initially trypsinized and then scraped. The cells were sub-cultured at a ratio of 1:3 until achieving the number of cells required for the experiment.
Biocompatibility study. Keratinocytes (2×10^4 cells) were cultured on top of PU-Adhesive-LL37NP, PU-Adhesive or PU films and cultured for 4 and 24 h. […] Cell viability was measured using ATP assay. […]
In vitro cytotoxicity of PU-adhesive-LL37NP films. […] To evaluate the cytotoxicity of films, keratinocytes were cultured on the top of PU-adhesive-LL37NP, PU-adhesive and PU films for 4 and 24 h and then cell viability was evaluated by an ATP assay (FIG. 12A). […]

SMILES | MIC (E.coli; free peptide) | MIC (S.aureus; free peptide) | keratinocyte metabolism / cytotoxicity (ATP production) [1] | MIC (P.aeruginosa) | time to induce resistance (E.coli; serial passages at sub-MIC) [days] | time to induce resistance (S.aureus; serial passages at sub-MIC) [days]
CC[C@H](C)[C@H](NC(=O)[C@H](CCCCN)NC(=O)[C@H](CCC(=O)O)NC(=O)[C@H](CCCCN)NC(=O)[C@H](CO)NC(=O)[C@H](CCCCN)NC(=O)[C@H](CCCNC(=N)N)NC(=O)[C@H](Cc1ccccc1)NC(=O)[C@H](Cc1ccccc1)NC(=O)[C@H](CC(=O)O)NC(=O)CNC(=O)[C@H](CC(C)C)NC(=O)[C@@H](N)CC(C)C)C(=O)NCC(=O)N[C@@H](CCCCN)C(=O)N[C@@H](CCC(=O)O)C(=O)N[C@@H](Cc1ccccc1)C(=O)N[C@@H](CCCCN)C(=O)N[C@@H](CCCNC(=N)N)C(=O)N[C@H](C(=O)N[C@H](C(=O)N[C@@H](CCC(N)=O)C(=O)N[C@@H](CCCNC(=N)N)C(=O)N[C@H](C(=O)N[C@@H](CCCCN)C(=O)N[C@@H](CC(=O)O)C(=O)N[C@@H](Cc1ccccc1)C(=O)N[C@@H](CC(C)C)C(=O)N[C@@H](CCCNC(=N)N)C(=O)N[C@@H](CC(N)=O)C(=O)N[C@@H](CC(C)C)C(=O)N[C@H](C(=O)N1CCC[C@H]1C(=O)N[C@@H](CCCNC(=N)N)C(=O)N[C@H](C(=O)N[C@@H](CCC(=O)O)C(=O)N[C@@H](CO)C(=O)N[C@@H](CS)C(=O)O)[C@@H](C)O)C(C)C)[C@@H](C)CC)C(C)C)[C@@H](C)CC [LL37 peptide] | up to 15 µg/mL | up to 15 µg/mL | No statistic difference in keratinocyte metabolism | up to 15 µg/mL |  | 
O=C(N[C@H](CO)[C@H](O)c1ccc([N+](=O)[O-])cc1)C(Cl)Cl [chloramphenicol] |  |  |  |  | ≤ 3 | ≤ 3
